Source: patent US11497766B2, “Compositions and methods for treating or preventing diseases associated with oxidative stress” (CXL OPHTHALMICS, LLC, priority 2012, dated 2022)

Tested on: eyes
Assay: Corneal collagen cross-linking with riboflavin and sodium iodide; post-operative corneal haze
Assay type: in vivo
Details: corneal collagen cross-linking utilizing 0.5% riboflavin and 0.015% (1 mmol) sodium iodide; over 200 eyes; compared to historical cross-linking procedures performed without sodium iodide
Experimental: Corneal collagen cross-linking utilizing 0.5% riboflavin and 0.015% (1 mmol) sodium iodide was performed in over 200 eyes.

[I-].[Na+] [sodium iodide] was tested, and the Post-operative corneal haze was “minimal”.
